Source: patent US5679638A, “Method for treating a tumor with a chemotherapeutic agent” (Biopure Corporation, priority 1993, dated 1997)
“And” between values parts separate entries of the source, which are not always exact repeats. Equal entries are not always repeated. Structures can show the parent of a compound that is named as a salt.

Columns and labels:
Lewis lung carcinoma = Lewis lung carcinoma growth delay; type: in vivo, mouse (male C57BL); settings: for Lewis lung carcinoma growth delay, Mean Days: NSAID days 4-18
Experimental: (§1) The Lewis lung tumor was carried in male C57BL mice (Taconic Laboratories, Germantown, N.Y.). For the experiments, 2×10^6 tumor cells prepared from a brei of several stock tumors were implanted subctaneously into the legs of male mice aged 8-10 weeks. […] Animals bearing Lewis lung tumors were treated daily with intraperitoneal Mino (10 mg/kg), Diflun (15 mg/kg) or Sulin (15 mg/kg) on days 4-18 following tumor implantation. When the tumors had reached a volume of approximately 100 mm^3 (day 7 after tumor cell implantation), cytotoxic therapy was initiated.
(§2) Therapy consisted of treatment with an antitumor alkylating agent, an antitumor antimetabolite, a non-steroidal anti-inflammatory drug (NSAID) and/or UPHS. […] CTX therapy consisted of three successive 150 mg/kg CTX doses administered by intraperitoneal injections on days 7, 9 and 11. BCNU therapy consisted of three successive 15 mg/Kg BCNU doses administered by intraperitoneal injections on days 7, 9 and 11. Therapy with the antimetabolite 5-fluorouracil(5-FU) consisted of 4 successive 40 mg/kg 5-FU doses administered by intraperitoneal injections daily on days 7 to 11. The 5-FU was purchased from Sigma Chemical Co., St. Louis, Mo. Fourteen doses of 10 mg/kg of NSAID were administered daily by intraperitoneal injections on days 4 to 18. UPHS was injected into the tail vein in 8 ml/kg doses daily on days 7-11.
The progress of each tumor was measured thrice weekly until it had reached a volume of 500 mm^3. Tumor growth delay was calculated as the number of days required for each treated tumor to reach a volume of 500 mm^3 as compared with untreated control tumors. Each treatment group comprised six animals and the experiment was repeated three times.
On the twentieth day after the subcutaneous tumor implantation, the delay in Lewis Lung Carcinoma tumor growth was evaluated. Tumor growth delay data is presented as the mean value ±SE calculated for the treatment group as compared with the control group.

[1] = test system: Lewis lung carcinoma lung metastases; test: Lung metastases of Lewis lung carcinoma; type: in vivo, mouse (male C57BL); set-up: Lung Metastases: unit not given here
Experimental: as §1
as §2, with “7-11. […]” for “7-11.”

[2] = test system: intracranial 9L gliosarcoma; test: Life span of rats with intracranial 9L gliosarcoma; type: in vivo, rat (male Fischer 344)
Experimental: (§3) The 9L gliosarcoma (9L) cells were obtained as a gift of 9L/SF gliosarcoma cells from Dr. Dennis Dean, University of California, San Francisco. These cells were maintained in culture in .varies.-MEM (Grand Island Biological Co., Grand Island, N.Y.) and supplemented with 10% fetal bovine serum (Sterile Systems, Inc., Logan, Utah) and with antibiotics. The 9L cells (4×10^4) in 10 μL of media without serum were implanted intracranially in male Fischer 344 rats (Taconic Farms, Germantown, N.Y.) weighing 200-250 gm on day 0. Each rat was anesthetized with sodium pentobarbital. A midline scalp incision was made and a hole was bored through the skull with 23 gauge needle at a point 2 mm lateral to the midline. The cell suspension was injected into the right frontal lobe at a depth of 3 mm from the dural surface. The needle was removed and the hole filled with dental cement. The scalp was sealed with a surgical clip. Two days later 9L cells (2×10^6) were implanted subcutaneously into the flank of each animal. When the tumors were approximately 100 mm^3 in volume, 7 days after tumor cell implantation, 8 ml/kg of UPHS was injected via the tail vein. After injecting the UPHS, administration of chemotherapeutic agents was initiated. […] BCNU therapy consisted of three 15 mg/kg BCNU doses administered by intraperitoneal injection days 7, 9 and 11. CTX and ifosfamide (IFOS) therapy consisted of three 100 mg/kg CTX or IFOS doses administered by intraperitoneal injection on days 7, 9 and 11. For the BCNU, CTX and IFOS therapies, UPHS was intravenously administered prior to each chemotherapeutic agent injection on days 7, 9 and 11. The IFOS was purchased from the Dana-Farber Cancer Institute. Survival of animals was monitored daily. Animals that were moribund or unable to reach food or water were killed by CO2 inhalation.
The effect of the treatments on the growth of the intracranial tumor was determined by the increase in life span of treated groups compared with the untreated controls. A percentage increase in life span of 25% or more is therapeutically significant.

[3] = test system: subcutaneous 9L gliosarcoma; test: Subcutaneous 9L gliosarcoma tumor growth delay; type: in vivo, rat (male Fischer 344)
Experimental: as §3
The progress of each subcutaneous tumor was measured 3 times/week until it reached a volume of 500 mm^3. Tumor growth delay was calculated as the number of days for each individual tumor to reach 500 mm^3 compared with untreated controls. Each treatment group had 4 animals and the experiment was repeated twice. Days of tumor growth delay are the mean ±SE for the treatment group compared with the control.

[4] = WITH UPHS (8 ml/kg daily days 7-11), CDDP or PAM 10 mg/kg, CTX 3 x 150, BCNU 3 x 15, 5-FU 40 mg/kg
[5] = WITHOUT UPHS, CDDP or PAM 10 mg/kg day 7, CTX 3 x 150, BCNU 3 x 15 mg/kg days 7, 9, 11, 5-FU 40 mg/kg
[6] = relative statement among BCNU, CTX, CDDP, IFOS

Row | SMILES | Lewis lung carcinoma growth delay, Mean Days (Lewis lung carcinoma; [4]) [days] | Lewis lung carcinoma growth delay, Mean Days (Lewis lung carcinoma; [5]) [days] | Increase of growth delay by addition of UPHS (Lewis lung carcinoma; drug + UPHS vs drug) | Lung Metastases ([1]; WITH UPHS) | Lung Metastases (% Large) ([1]; WITH UPHS) [%] | Lung Metastases ([1]; WITHOUT UPHS) | Lung Metastases (% Large) ([1]; WITHOUT UPHS) [%] | % Increased from Control (life span) ([2]; Table II, vs untreated control) | Survival Days ([2]; Table II, control 26 ± 2.2 days, CDDP 8 mg/kg day 7, BCNU 3 x 15, CTX or IFOS 3 x 100 mg/kg days 7, 9, 11, UPHS 8 ml/kg) | Increase in life span with UPHS prior to the drug therapy ([2]; UPHS prior to drug, vs untreated control) [%] | Significance of increase in life span, drug alone ([2]; drug alone, 25% or more is therapeutically significant) | Increase in therapeutic response upon addition of UPHS ([2]; intracranial (life span) and subcutaneous (growth delay) 9L tumors) | Effectiveness against intracranial 9L tumors [2, 6] | Subcutaneous 9L Tumor Growth Delay, Mean Days ([3]; Table III, days to 500 mm^3 vs control (19.5 ± 0.5 days), CDDP 8 mg/kg day 7, BCNU 3 x 15, CTX or IFOS 3 x 100 mg/kg, UPHS 8 ml/kg) [days] | Increase in tumor growth delay by prior administration of UPHS ([3]; UPHS + drug vs drug alone) [fold] | Effectiveness against subcutaneous 9L tumors [3, 6] | Effect of addition of NSAIDs (with or without UPHS) to cytotoxic agents on growth delay (Lewis lung carcinoma; mouse, in vivo)
1 | O=c1[nH]cc(F)c(=O)[nH]1 [5-FU, 5-fluorouracil] | 6.3 ± 0.5 | 5.4 ± 0.4 | also enhanced, to a lesser degree | 15 | 40 | 21 | 52 |  |  |  |  |  |  |  |  |  | 
2 | O=C(O)c1cc(-c2ccc(F)cc2F)ccc1O [Diflun, Diflunisal] | 0.9 ± 0.3 | 0.3 ± 0.2 |  | 20 | 55 | 20 | 51 |  |  |  |  |  |  |  |  |  | 
3 | O=P1(NCCCl)OCCCN1CCCl (centres unmarked) [IFOS, ifosfamide] |  |  |  |  |  |  |  | 19% and 38% | 30.9 days and 35.9 days | 38 | did not reach significance | greatest increases in therapeutic response upon addition of UPHS | least effective treatments for intracranial 9L tumors | 10.4 ± 0.9 | 1.4 | very effective treatments for subcutaneously growing 9L tumors | 
4 | CN(C)c1ccc(O)c2c1C[C@H]1C[C@H]3[C@H](N(C)C)C(O)=C(C(N)=O)C(=O)[C@@]3(O)C(O)=C1C2=O [Mino, minocycline hydrochloride] | 1.0 ± 0.4 | 0.8 ± 0.3 |  | 20 | 65 | 20 | 50 |  |  |  |  |  |  |  |  |  | 
5 | CC1=C(CC(=O)O)c2cc(F)ccc2/C1=C\c1ccc([S+](C)[O-])cc1 (centres unmarked) [Sulin, Sulindac] | 0.5 ± 0.3 | 1.2 ± 0.4 |  | 21 | 57 | 19 | 55 |  |  |  |  |  |  |  |  |  | providing the best NSAID results
